The values that follow come from the SangsterLogP compilation.

Data set [1] in a line: method code SF-RC, from DOI: 10.1021/jf00107a040.
A short description of data set [2]: method code SF-AS, from DOI: 10.1021/jf00107a040.
Data set [3] in a line: method code SF-GLC, from DOI: 10.1021/jf00107a040.

The structures appear in SMILES notation.

By logP is commonly meant a log measure of how a compound divides between an organic and an aqueous phase. Low values mean lower lipophilicity, high ones higher lipophilicity. For `CNC(=O)ON=CC(C)(C)S(C)(=O)=O`, the logP in data set [1] is -0.57.
In data set [2], `COc1ccc(NC(=O)N(C)C)cc1Cl` displayed a logP of 1.64.
The same measure, in the same setting: the same measure for `CN(C)C(=O)Nc1cccc(C(F)(F)F)c1`: 2.42.
Turning to `COc1ccc(N)cc1Cl`, in data set [3], the logP turned out to be 1.85.
Turning to `CNC(=O)Nc1cccc(Cl)c1`, the logP in data set [2] worked out at 2.18.
As for `Cc1ccc(NC(=O)N(C)C)cc1Cl`, in data set [2], the logP came out at 2.41.
The same measure, in the same setting: to `COc1ccc(NC(C)=O)cc1Cl` belongs 1.82.
On the same count and under the same terms, to `O=[N+]([O-])c1ccc(Br)cc1` belongs 2.6; to `O=C(Nc1ccccc1)NC1CCCCCC1`, 2.95.
Same read-out and setting: the same measure for `CC(=O)Nc1cccc(C(F)(F)F)c1`: 2.2.
In the case of `NC(=O)Nc1ccccc1Cl`, in data set [3], the logP was 1.27.
The molecule `Cc1cc(N)ccc1Br` registered a logP in data set [2] of 2.53.
On the same count and under the same terms, the same measure for `CC(=O)Nc1cccc(C)c1`: 1.52; for `CCCOC(=O)Nc1ccccc1`: 2.8; for `CCCCOC(=O)Nc1ccccc1`: 3.3.
The molecule `NC(=O)Nc1cccc(C(F)(F)F)c1` returned a logP in data set [3] of 2.31.
With `CN(C)C(=O)Nc1ccc(F)cc1`, the logP in data set [2] was 1.13.
Still for that read-out and setting: to `Cc1cc(NC(N)=O)ccc1Br` belongs 2.49.
The same measure, in the same setting: to `CCCCCOC(=O)Nc1ccccc1` belongs 3.8; to `CC(=O)Nc1cccc(Cl)c1`, 2.02.
Same read-out and setting: to `O=C(Nc1ccccc1)NC1CCCC1` belongs 2.65.
Consider `NC(=O)Nc1ccc(Br)cc1`, for which the logP in data set [3] was 1.98.
In data set [2], `COc1cccc(NC(=O)N(C)C)c1` gave a logP of 1.73.
As to `CN(C)C(=O)Nc1cccc(F)c1`, the lipophilicity (logP) in data set [2] is 1.37.
Molecule `COC(=O)Nc1ccc(Cl)c(Cl)c1` came in with a logP in data set [3] of 3.09.
Turning to `CCOC(=O)Nc1ccccc1`, the logP in data set [2] is 2.26.
Same read-out and setting: to `CN(C)C(=O)Nc1cccc(Cl)c1` belongs 2.01; to `CC(=O)Nc1cccc(Br)c1`, 2.04.
The molecule `NC(=O)Nc1ccc(F)cc1` yielded a logP in data set [3] of 1.04.
Same read-out and setting: to `CNC(=O)Nc1ccc(Cl)c(Cl)c1` belongs 2.94.
In turn, `COc1ccc(NC(N)=O)cc1Cl` returned a logP in data set [2] of 1.37.
Regarding `NC(=O)Nc1cccc(F)c1`, the logP in data set [3] is 1.29.
With `COc1ccc(NC(=O)N(C)C)cc1`, the logP in data set [2] turned out to be 0.83.
Same read-out and setting: the same measure for `CC(=O)Nc1cccc(F)c1`: 1.46.
Turning to `O=C(Nc1ccccc1)NC1CCCCC1`, in data set [2], the lipophilicity (logP) came to 2.77.
`CC(=O)Nc1ccc(Br)cc1`: the logP in data set [2] amounted to 2.14.
Still for that read-out and setting: the same measure for `NC(=O)Nc1ccc(Oc2ccccc2)cc1`: 2.8; for `CNC(=O)Nc1ccc(OC)c(Cl)c1`: 1.76; for `CNC(=O)Nc1ccccc1`: 1.17.
On to `NC(=O)Nc1ccc(Cl)c(Cl)c1`, for which the log partition coefficient (logP) in data set [3] stood at 2.64.
For `Cc1cc(NC(=O)N(C)C)cc(C)c1Br`, the logP in data set [2] came to 2.92.
In data set [2], `Cc1cccc(NC(N)=O)c1` registered a logP of 1.29.
The same measure, in the same setting: the same measure for `Cc1cc(NC(N)=O)ccc1F`: 1.59; for `Cc1cc(C)cc(NC(=O)N(C)C)c1`: 1.9.
Still for that read-out and setting: to `O=C(Nc1ccccc1)NC1CC1` belongs 1.65; to `CC(C)OC(=O)Nc1ccccc1`, 2.6; to `CNC(=O)Nc1ccc(C)c(Cl)c1`, 2.61.
Molecule `NC(=O)Nc1ccccc1F` yielded a logP in data set [3] of 0.88.
In turn, `NC(=O)Nc1cccc(Br)c1` displayed a logP in data set [3] of 2.08.
Molecule `NC(=O)Nc1cccc(Cl)c1` came in with a logP in data set [3] of 1.82.
Take `Cc1ccc(NC(=O)N(C)C)cc1`: the logP in data set [2] was 1.33.
The same measure, in the same setting: to `CON(C)C(=O)Nc1ccc(Br)c(Cl)c1` belongs 3.09.
